A short description of this data set: in vitro. Conditions: human, hela cells, % viability.
As to `O=C(NC[C@H]1O[C@@H](CC(=O)N2CCCC2)[C@H](O)[C@@H]1O)c1cccc(F)c1` [CBK288908], the viability at 28.5 h, 10 µM is 88.3%.
Regarding `Cc1ccc(S(=O)(=O)NC[C@H]2O[C@@H](CC(=O)N3CCCC3)[C@H](O)[C@@H]2O)cc1` [CBK288910], the viability at 28.5 h, 10 µM was determined as 112%.
The figure for `O=C(C[C@@H]1O[C@H](CNS(=O)(=O)c2ccc(Cl)cc2)[C@@H](O)[C@H]1O)N1CCCC1` [CBK288911] is 94.2%; for `O=C(NC[C@H]1O[C@@H](CC(=O)N2CCCC2)[C@H](O)[C@@H]1O)c1ccc(F)c(Cl)c1` [CBK288913] it is 90.9%.
Consider `O=C(C[C@@H]1O[C@H](CNCc2cccc(Cl)c2)[C@@H](O)[C@H]1O)N1CCc2ccccc21` [CBK288918], for which the viability at 28.5 h, 10 µM was 89%.
In the case of `O=C(NC[C@H]1O[C@@H](CC(=O)N2CCN(c3ccccc3)CC2)[C@H](O)[C@@H]1O)c1ccccc1` [CBK288920], the viability at 28.5 h, 10 µM came to 108%.
The figure for `O=C(NC[C@H]1O[C@@H](CC(=O)N2CCN(c3ccc(F)cc3)CC2)[C@H](O)[C@@H]1O)C1CC1` [CBK288921] is 92.7%; for `O=C(NC[C@H]1O[C@@H](CC(=O)N2CCN(c3ccc(F)cc3)CC2)[C@H](O)[C@@H]1O)c1ccco1` [CBK288922] it is 95.4%.
The figure for `Cc1ccc(S(=O)(=O)NC[C@H]2O[C@@H](CC(=O)N3CCOCC3)[C@H](O)[C@@H]2O)cc1` [CBK288924] is 87.5%.
For the compound `CC1CCN(C(=O)C[C@@H]2O[C@H](CNS(=O)(=O)c3ccccc3)[C@@H](O)[C@H]2O)CC1` [CBK288927], the viability at 28.5 h, 10 µM is 89.7%.
The figure for `NC(=O)[C@@H]1C[C@@H](O)[C@H](O)[C@H]2[C@@H]1N(c1ccccc1)C(=S)N2Cc1ccc(F)cc1` [CBK288928] is 102%.
The result for `Nc1ncncc1-c1noc([C@@H]2CCCN2C2CCOCC2)n1` [CBK288932] reads 90.7%; that for `NC(=O)[C@@H]1C[C@@H](O)[C@H](O)[C@H]2[C@@H]1N(c1ccc(Cl)cc1)C(=S)N2CC1CCCCC1` [CBK288933], 86.8%; that for `COc1ccc(CN2C(=S)N(CC3CCCCC3)[C@H]3[C@@H]2[C@H]2OC(=O)[C@@H]3C[C@H]2O)cc1` [CBK288936], 117%.
The figure for `NC(=O)[C@H]1C[C@@H](O)[C@H](O)[C@H]2[C@@H]1S/C(=N\c1ccc(Cl)cc1)N2Cc1ccccc1` [CBK288940] is 94.9%; for `COc1ccc(/N=C2\S[C@H]3[C@H]([C@@H](O)[C@H](O)C[C@@H]3C(N)=O)N2Cc2ccc(F)cc2)cc1` [CBK288942] it is 90.5%.
In the case of `COc1ccc(/N=C2\S[C@H]3[C@H]([C@@H](O)[C@H](O)C[C@@H]3C(N)=O)N2Cc2cccs2)cc1` [CBK288943], the viability at 28.5 h, 10 µM worked out at 88.7%.
Consider `NC(=O)[C@H]1C[C@@H](O)[C@H](O)[C@H]2[C@@H]1S/C(=N\c1ccccc1)N2Cc1cccs1` [CBK288944], for which the viability at 28.5 h, 10 µM was 100%.
The figure for `C=CCN(C)C(=O)[C@H]1C[C@@H](O)[C@H](O)[C@@H]2N=C(Nc3ccc(Cl)cc3)S[C@@H]21` [CBK288946] is 87%.
The figure for `C=CCN(C)C(=O)[C@H]1C[C@@H](O)[C@H](O)[C@@H]2N=C(Nc3ccc(OC)cc3)S[C@@H]21` [CBK288947] is 97.1%.
The figure for `C=CCN(C)C(=O)[C@H]1C[C@@H](O)[C@H](O)[C@@H]2N=C(Nc3cc(C)cc(C)c3)S[C@@H]21` [CBK288948] is 94.2%.
As to `Cc1cc(C)cc(NC2=N[C@H]3[C@@H](O)[C@H](O)C[C@H](C(=O)N4CCCCC4)[C@H]3S2)c1` [CBK288952], the viability at 28.5 h, 10 µM worked out at 90%.
The result for `O=C([C@H]1C[C@@H](O)[C@H](O)[C@@H]2N=C(Nc3ccc4c(c3)OCO4)S[C@@H]21)N1CCCCC1` [CBK288953] reads 108%; that for `c1ccc2oc(CN3Cc4nc[nH]c4C[C@H]3c3nc(-c4cnccn4)no3)cc2c1` [CBK288954], 113%.
The result for `CC(=O)Nc1ccc(CN2Cc3nc[nH]c3C[C@H]2c2nc(-c3ccc(F)cc3)no2)cc1` [CBK288956] reads 89.7%.
`CC(=O)c1ccc(NC(=O)N2Cc3nc[nH]c3C[C@H]2c2nc(-c3ccc(C)cc3)no2)cc1` [CBK288959]: the viability at 28.5 h, 10 µM was found to be 83.6%.
The result for `CC(C)NC(=O)N1Cc2nc[nH]c2C[C@H]1c1nc(-c2ccc(OC(F)(F)F)cc2)no1` [CBK288960] reads 85.9%.
The figure for `Cc1cccc(-c2noc([C@@H]3Cc4[nH]cnc4CN3C(=O)CC(C)(C)CC(=O)O)n2)c1` [CBK288961] is 95.8%; for `Cc1cccc(-c2noc([C@@H]3Cc4[nH]cnc4CN3C(=O)NC(C)C)n2)c1` [CBK288962] it is 97.6%.
On to `N#Cc1ccc(C(=O)N2Cc3nc[nH]c3C[C@H]2c2nc(-c3ccncc3)no2)cc1` [CBK288963], for which the viability at 28.5 h, 10 µM came to 117%.
The result for `O=C(c1ccco1)N1Cc2nc[nH]c2C[C@H]1c1nc(-c2ccc3ccccc3c2)no1` [CBK288965] reads 108%.
The result for `O=C(Nc1ccc(F)cc1)N1Cc2nc[nH]c2C[C@H]1c1nc(-c2ccc(F)cc2)no1` [CBK288970] reads 95%; that for `O=C(NCc1ccccc1)[C@@H]1Cc2[nH]cnc2CN1C(=O)C1CCCCC1` [CBK288972], 113%.
The figure for `CC(C)NC(=O)N1Cc2nc[nH]c2C[C@H]1C(=O)NCc1ccco1` [CBK288974] is 92.9%; for `CCNC(=O)N1Cc2nc[nH]c2C[C@H]1C(=O)NCc1ccc(C#N)cc1` [CBK288975] it is 96.2%; for `COc1ccc(CN2Cc3nc[nH]c3C[C@H]2C(=O)NCc2ccccc2)c2ccccc12` [CBK288976] it is 86.5%.
As to `O=C([C@@H]1Cc2[nH]cnc2CN1Cc1cc2ccccc2o1)N1CCOCC1` [CBK288977], the viability at 28.5 h, 10 µM was 114%.
The figure for `CN(Cc1ccccc1)C(=O)[C@@H]1Cc2[nH]cnc2CN1Cc1cc2ccccc2o1` [CBK288978] is 108%; for `O=C(NCc1ccc(C(F)(F)F)cc1)[C@@H]1Cc2[nH]cnc2CN1C1CCOCC1` [CBK288981] it is 103%.
The figure for `COC(=O)[C@@H]1Cc2ncn(Cc3ccc(OC)cc3)c2CN1C(=O)c1ccc(C#N)cc1` [CBK288982] is 95.4%; for `COC(=O)[C@@H]1Cc2ncn(Cc3ccc(Cl)cc3)c2CN1C(=O)c1ccc(C#N)cc1` [CBK288984] it is 94.5%; for `COC(=O)[C@@H]1Cc2ncn(C(C)C)c2CN1S(=O)(=O)c1ccc([N+](=O)[O-])cc1` [CBK288985] it is 95.7%.
The result for `COC(=O)[C@@H]1Cc2ncn(C(C)C)c2CN1C(=O)CC(C)(C)C` [CBK288988] reads 88.9%; that for `COC(=O)[C@@H]1Cc2ncn(C(C)C)c2CN1C(=O)c1ccc(F)cc1` [CBK288990], 80.6%; that for `CCCS(=O)(=O)N1Cc2c(ncn2C)C[C@H]1C(=O)OC` [CBK288991], 90.2%.
Consider `COC(=O)[C@@H]1Cc2ncn(C)c2CN1S(=O)(=O)c1cccs1` [CBK288992], for which the viability at 28.5 h, 10 µM was found to be 104%.
The result for `COC(=O)[C@@H]1Cc2ncn(C)c2CN1C(=O)c1ccc(C#N)cc1` [CBK288994] reads 76.5%; that for `CCCn1cnc2c1CN(C(C)=O)[C@H](C(=O)OC)C2` [CBK288995], 101%.
The figure for `CC(C)NC(=O)N1Cc2nc[nH]c2C[C@H]1c1nc(-c2ccccc2)no1` [CBK288996] is 83%.
The result for `c1ccc2oc(CN3Cc4nc[nH]c4C[C@H]3c3nc(-c4ccc5c(c4)OCO5)no3)cc2c1` [CBK288998] reads 81.5%; that for `CC(C)NC(=O)N1Cc2nc[nH]c2C[C@H]1c1nc(-c2ccc(F)c(Cl)c2)no1` [CBK288999], 86.6%.
On to `O=C1NC[C@@H](CCC(=O)N2CCCC2)N2C[C@@H](NC(=S)Nc3ccccc3)C[C@@H]12` [CBK289004], for which the viability at 28.5 h, 10 µM turned out to be 113%.
Take `N[C@H]1C[C@H]2C(=O)NC[C@@H](CCC(=O)NCc3cccs3)N2C1` [CBK289005]: the viability at 28.5 h, 10 µM is 86.6%.
The figure for `O=C(CC[C@@H]1CNC(=O)[C@@H]2C[C@H](NC(=O)c3ccco3)CN12)Nc1ccccc1` [CBK289007] is 91.1%.
Consider `O=C(CC[C@@H]1CNC(=O)[C@@H]2C[C@H](NC(=O)c3cccc(F)c3)CN12)Nc1ccccc1` [CBK289008], for which the viability at 28.5 h, 10 µM worked out at 83.9%.
Regarding `O=C(N[C@H]1C[C@H]2C(=O)NC[C@@H](CCC(=O)N3CCOCC3)N2C1)c1cccs1` [CBK289009], the viability at 28.5 h, 10 µM came to 92%.
With `O=C(N[C@H]1C[C@H]2C(=O)NC[C@@H](CCC(=O)N3CCCCC3)N2C1)c1cccs1` [CBK289010], the viability at 28.5 h, 10 µM is 87.9%.
The result for `O=C1NC[C@@H](CCC(=O)N2CCCCC2)N2C[C@@H](NS(=O)(=O)c3ccccc3)C[C@@H]12` [CBK289012] reads 92.9%; that for `COc1ccc(C(=O)N[C@H]2C[C@H]3C(=O)NC[C@@H](CCC(=O)N4CCN(C)CC4)N3C2)cc1` [CBK289016], 90.6%; that for `C#CCNC(=O)CC[C@H]1CNC(=O)[C@@H]2[C@@H](CCN2Cc2ccc(O)cc2)N1C` [CBK289017], 94%.
The result for `C#CCNC(=O)CC[C@H]1CNC(=O)[C@@H]2[C@@H](CCN2Cc2nc3ccccc3n2C)N1C` [CBK289018] reads 102%; that for `COC(=O)CC[C@H]1CNC(=O)[C@@H]2[C@@H](CCN2S(C)(=O)=O)N1C` [CBK289019], 112%; that for `CN1[C@@H](CCC(=O)N2CCc3ccccc32)CNC(=O)[C@@H]2[C@H]1CCN2Cc1ccc(O)cc1` [CBK289021], 88.9%.
As to `CN1CCC(N2CC[C@@H]3[C@H]2C(=O)NC[C@H](CCC(=O)NCc2ccc(F)cc2)N3C)CC1` [CBK289022], the viability at 28.5 h, 10 µM turned out to be 90.6%.
The result for `COc1ccc(CNC(=O)CC[C@H]2CNC(=O)[C@H]3NCC[C@H]3N2C)cc1` [CBK289025] reads 87.6%.
Turning to `CN1CCC(N2CC[C@@H]3[C@H]2C(=O)NC[C@H](CCC(=O)NCc2ccccc2)N3C)CC1` [CBK289026], the viability at 28.5 h, 10 µM amounted to 114%.

In general, viability refers to a read-out of living cells in per cent, often relative to untreated cells.

The record behind these values is publication PMC12040169 (PLOS Biology, 2025).
